Here are results for 43 compounds from patent US12528818B2, “Compositions and methods for inhibition of RAS” (Leidos Biomedical Research, Inc., priority 2021, dated 2026).

One experiment relates to pERK in NCI-H358 cells. Kind of experiment: Cell-based pERK HTRF assay (pERK inhibition in H358 cells). The conditions noted are these: Homo sapiens, NCI-H358, 0.5 h, pERK inhibition IC50, NCI-H358 cells, 30 min incubation; read-out: PERK in H358 cell.
`C=CC(=O)N1C[C@H](C)N(c2nc(OCC3(CN4CC[C@@H](F)C4)CC3)nc3c(F)c(-c4ccc(F)c5sc(N)nc45)c(C(F)(F)F)cc23)C[C@H]1C` [Compound 286]: the IC50 was < 100 nM.

In the case of `C=CC(=O)N1C[C@H](C)N(c2nc(OC[C@@]34CCCN3C[C@H](F)C4)nc3c(F)c(-c4ccc(F)c5sc(N)nc45)c(Cl)cc23)C[C@H]1C` [Compound 266], the IC50 was < 100 nM.

In the case of `C=CC(=O)N1C[C@H](C)N(c2nc(OC[C@@]34CCCN3C[C@H](F)C4)nc3c(F)c(-c4ccc(F)c5sc(N)c(C#N)c45)ccc23)C[C@H]1C` [Compound 312], the IC50 is < 100 nM.

With `C=CC(=O)N1CCC(N(C)c2nc(OC[C@@H]3CCCN3C)nc3c(F)c(-c4ccc(F)c5sc(N)c(C#N)c45)c(C(F)(F)F)cc23)[C@H]1C` (stereo partly shown) [Compound 400], the IC50 is < 100 nM.

Take `C=CC(=O)N1CC[C@@H](N(CC)c2nc(OC[C@@]34CCCN3C[C@H](F)C4)nc3c(F)c(-c4ccc(F)c5sc(N)c(C#N)c45)c(C(F)(F)F)cc23)C1` [Compound 348, 4-(4-(((R)-1-acryloylpyrrolidin-3-yl)(ethyl)amino)-8-fluoro-2-(((2R,7aS)-2-fluorotetrahydro-1H-pyrrolizin-7a(5H)-yl)methoxy)-6-(trifluoromethyl)quinazolin-7-yl)-2-amino-7-fluorobenzo[b]thiophene-3-carbonitrile]: the IC50 is < 100 nM.

On to `C=CC(=O)N1CCN(c2nc(OC[C@@H]3CC(F)(F)CN3C)nc3c(F)c(-c4ccc(F)c5sc(N)nc45)c(C(F)(F)F)cc23)CC1` [Compound 131], for which the IC50 was < 100 nM.

Regarding `C=CC(=O)N1CC[C@@H](N(C)c2nc(OC[C@@]34CCCN3C[C@H](F)C4)nc3c(F)c(-c4ccc(F)c5sc(N)nc45)c(C#N)cc23)[C@H]1C` [Compound 373], the IC50 was 100 to 1000 nM.

With `C=CC(=O)N1C[C@H](C)N(c2nc(N3CC(N4CC(O)C4)C3)nc3c(F)c(-c4ccc(F)c5sc(N)c(C#N)c45)c(C(F)(F)F)cc23)C[C@H]1C` [Compound 328], the IC50 was < 100 nM.

Consider `C=CC(=O)N1CC[C@@H](N(C)c2nc(OCC34CCCN3CCC4)nc3c(F)c(-c4c(O)cccc4F)c(C(F)(F)F)cc23)C1` [Compound 227], for which the IC50 is > 1000 nM.

Regarding `C=CC(=O)N1CC[C@@H]2[C@H]1CN2c1nc(OC[C@@]23CCCN2C[C@H](F)C3)nc2c(F)c(-c3ccc(F)c4sc(N)c(C#N)c34)c(C(F)(F)F)cc12` [Compound 339], the IC50 was < 100 nM.

As for `C=CC(=O)N1CC[C@@H](N(C)c2nc(OC[C@]34CCCN3C[C@H](OC)C4)nc3c(F)c(-c4ccc(F)c5sc(N)nc45)c(C(F)(F)F)cc23)C1` (atropisomer, axis not shown) [Compound 277], the IC50 is < 100 nM.

With `C=CC(=O)N1C[C@@H](F)[C@@H](N(CC)c2nc(OC[C@@]34CCCN3C[C@H](F)C4)nc3cc(-c4ccc(F)c5sc(N)c(C#N)c45)c(C(F)(F)F)cc23)C1` [Compound 375], the IC50 was < 100 nM.

Take `C=CC(=O)N1CCN(c2c(C#N)c(OC[C@@]34CCCN3C[C@H](F)C4)nc3c(F)c(-c4ccc(F)c5sc(N)nc45)c(Cl)cc23)CC1` [Compound 200]: the IC50 is < 100 nM.

For `C=CC(=O)N1CCCC(Nc2nc(OC[C@@H]3CCCN3C)nc3c(F)c(-c4ccc(F)c5sc(N)nc45)c(Cl)cc23)C1` (stereo partly shown) [Compound 54], the IC50 was 100 to 1000 nM.

`C=CC(=O)N1CCN(c2ncnc3c(F)c(-c4ccc(F)c5sc(N)nc45)c(C4CCC4)cc23)CC1` [Compound 122]: the IC50 is > 1000 nM.

As for `C=CC(=O)N1CCN(c2nc(OC[C@@]34CCCN3C[C@@H](F)C4)nc3c(F)c(-c4ccc(F)c5sc(N)nc45)c(C(F)(F)F)cc23)[C@H](C)C1` [Compound 217], the IC50 fell in the range of 100 to 1000 nM.

`C=CC(=O)N1C[C@H](C)N(c2nc(OC[C@@]34CCCN3C[C@H](F)C4)nc3c(Cl)c(-c4ccc(F)c5sc(N)c(C#N)c45)c(C#N)cc23)C[C@H]1C` [Compound 422]: the IC50 was < 100 nM.

Turning to `C=CC(=O)N1CCC(N(C)c2nc(OC[C@@]34CCCN3C[C@H](F)C4)nc3c(F)c(-c4ccc(F)c5sc(N)nc45)ccc23)[C@H]1C` (stereo partly shown) [Compound 413], the IC50 is 100 to 1000 nM.

As for `C=CC(=O)N1C[C@H](C)N(c2nc(OCC34CCCN3CCC4)nc3c(F)c(-c4ccc(F)c5sc(N)c(C#N)c45)c(Cl)cc23)C[C@H]1C` [Compound 366], the IC50 was < 100 nM.

On to `C=CC(=O)N1C[C@H](C)N(c2nc(N3CC(N4CC(OC)C4)C3)nc3c(F)c(-c4ccc(F)c5sc(N)c(C#N)c45)c(C(F)(F)F)cc23)C[C@H]1C` [Compound 331], for which the IC50 was < 100 nM.

In the case of `C=CC(=O)N1C[C@H](C)N(c2nc(OC[C@@]34CCCN3C[C@H](F)C4)nc3c(F)c(-c4ccc(F)c5sc(N)nc45)c(C(F)(F)F)cc23)C[C@H]1C` [Compound 202, 1-((2R,5S)-4-(7-(2-amino-7-fluorobenzo[d]thiazol-4-yl)-8-fluoro-2-(((2R,7aS)-2-fluorotetrahydro-1H-pyrrolizin-7a(5H)-yl)methoxy)-6-(trifluoromethyl)quinazolin-4-yl)-2,5-dimethylpiperazin-1-yl)prop-2-en-1-one], the IC50 is < 100 nM.

As to `C#CC(=O)N1CC(Nc2nc(OC[C@@H]3CCCN3C)nc3c(F)c(-c4ccc(F)c5sc(N)nc45)c(Cl)cc23)C1` [Compound 81], the IC50 fell in the range of 100 to 1000 nM.

On to `C=CC(=O)N1CC[C@@H](N(C)c2nc(OC[C@@]34CCCN3C[C@H](F)C4)nc3c(F)c(-c4ccc(F)c5sc(N)c(C#N)c45)c(Cl)cc23)[C@H]1C` [Compound 395, 4-(4-((1-acryloyl-2-methylpyrrolidin-3-yl)(methyl)amino)-6-chloro-8-fluoro-2-(((2R,7aS)-2-fluorotetrahydro-1H-pyrrolizin-7a(5H)-yl)methoxy)quinazolin-7-yl)-2-amino-7-fluorobenzo[b]thiophene-3-carbonitrile], for which the IC50 was < 100 nM.

In the case of `C=CC(=O)N1CC[C@@H](N(C)c2nc(OC[C@@]34CCCN3C[C@H](F)C4)nc3cc(-c4ccc(F)c5sc(N)nc45)c(C(F)(F)F)cc23)C1` [Compound 300], the IC50 is < 100 nM.

As for `C=CC(=O)N1CCN(c2nc(OC[C@@H]3CCCN3CC(F)F)nc3c(F)c(-c4ccc(F)c5sc(N)nc45)c(C(F)(F)F)cc23)CC1` [Compound 156], the IC50 is < 100 nM.

For `C=CC(=O)N1C[C@H](C)N(c2nc(OC[C@@H]3C[C@@H](F)CN3C)nc3c(F)c(-c4ccc(F)c5sc(N)c(C#N)c45)c(C(F)(F)F)cc23)C[C@H]1C` [Compound 406], the IC50 is < 100 nM.

Turning to `CC#CC(=O)N1CCN(c2nc(OC[C@@H]3CCCN3CCF)nc3c(F)c(-c4ccc(F)c5sc(N)nc45)c(C(F)(F)F)cc23)CC1` [Compound 154], the IC50 is 100 to 1000 nM.

For `C=CC(=O)N1C[C@@H](F)[C@@H](N(CC)c2nc(OCC34CCCN3CCC4)nc3cc(-c4ccc(F)c5sc(N)c(C#N)c45)c(C(F)(F)F)cc23)C1` [Compound 376], the IC50 is < 100 nM.

As to `C=CC(=O)N1C[C@@H](F)[C@@H](N(C)c2nc(OC[C@@]34CCCN3C[C@H](F)C4)nc3c(F)c(-c4ccc(F)c5sc(N)nc45)c(C#N)cc23)C1` [Compound 360], the IC50 lay within 100 to 1000 nM.

Consider `CC#CC(=O)N1CCN(c2nc(OCC34CCCN3CCC4)nc3c(F)c(-c4ccc(F)c5sc(N)nc45)c(C(F)(F)F)cc23)CC1` [Compound 134], for which the IC50 fell in the range of 100 to 1000 nM.

As to `C=CC(=O)N1CC[C@@H](N(C)c2nc(OC[C@@]34CCCN3C[C@H](F)C4)nc3c(F)c(-c4ccc(F)c5sc(N)c(C#N)c45)c(C(F)(F)F)cc23)C1` [Compound 253], the IC50 is < 100 nM.

Regarding `C=CC(=O)N1CC[C@@H](N(C)c2ncnc3c(F)c(-c4ccc(F)c5sc(N)nc45)c(C(F)(F)F)cc23)C1` [Compound 225], the IC50 is 100 to 1000 nM.

With `C=CC(=O)N1CC(Nc2nc(OC[C@@H]3C[C@@H](F)CN3C)nc3c(F)c(-c4ccc(F)c5sc(N)nc45)c(Cl)cc23)C1` [Compound 63], the IC50 is 100 to 1000 nM.

Take `C=CC(=O)N1C[C@H](C)N(c2nc(OC[C@@]34CCCN3C[C@H](F)C4)nc3c(F)c(-c4ccc(F)c5sc(N)nc45)c(C#N)cc23)C[C@H]1C` [Compound 326]: the IC50 is < 100 nM.

On to `C=CC(=O)N1CCN(c2nc(OCC34CCCN3CCC4)nc3c(F)c(-c4ccc(F)c5sc(N)nc45)c(Cl)cc23)CC1` [Compound 67], for which the IC50 was < 100 nM.

Turning to `C=CC(=O)N1CCC(N(CC)c2nc(OC[C@@H]3CCCN3C)nc3c(F)c(-c4ccc(F)c5sc(N)c(C#N)c45)c(C(F)(F)F)cc23)[C@H]1COC` (stereo partly shown) [Compound 438], the IC50 was < 100 nM.

Turning to `C=CC(=O)N1C[C@H](C)N(c2nc(OCC34CCCN3CCC4)nc3c(F)c(-c4ccc(F)c5sc(N)c(C#N)c45)c(C(F)(F)F)cc23)C[C@H]1C` [Compound 346], the IC50 was < 100 nM.

For the compound `C=CC(=O)N1C[C@@H](F)[C@@H](N(C)c2nc(OC[C@@]34CCCN3C[C@H](F)C4)nc3c(F)c(-c4ccc(F)c5sc(N)c(C#N)c45)ccc23)C1` [Compound 359], the IC50 is < 100 nM.

Still in this experiment, the particulars now being: pERK inhibition IC50, NCI-H358 cells, 30 min incubation; read-out: PERK in H358 cell.
As for `C=CC(=O)N1C[C@H](C)N(c2nc(OC[C@@]34CCCN3C[C@H](OC)C4)nc3c(F)c(-c4ccc(F)c5sc(N)nc45)c(C(F)(F)F)cc23)C[C@H]1C` [Compound 297], the IC50 is < 100 nM.

`C=CC(=O)N1CC[C@@H](N(C)c2nc(OC[C@@]34CCCN3C[C@H](F)C4)nc3c(F)c(-c4ccc(F)c5sc(N)nc45)c(C(F)(F)F)cc23)C1` (single isomer, unassigned) [Compound 240]: the IC50 was 100 to 1000 nM.

As to `C=CC(=O)N1CCC[C@@H](N(C)c2nc(OC[C@@]34CCCN3C[C@H](F)C4)nc3c(F)c(-c4ccc(F)c5sc(N)nc45)c(C(F)(F)F)cc23)C1` [Compound 245], the IC50 is > 1000 nM.

As to `C=CC(=O)N1C[C@H](N(C)c2ncnc3c(F)c(-c4ccc(F)c5sc(N)nc45)c(C(F)(F)F)cc23)C[C@H]1C` (atropisomer, axis not shown) [Compound 250], the IC50 was in the range of 100 to 1000 nM.

For `C=CC(=O)N1CCC[C@@H](N(C)c2nc(OC[C@@]34CCCN3C[C@H](F)C4)nc3c(F)c(-c4ccc(F)c5sc(N)nc45)c(Cl)cc23)C1` (atropisomer, axis not shown) [Compound 242], the IC50 was 100 to 1000 nM.
